Measured values: patent US7655679B2, “Derivatives of 2-aminothiazoles and 2-amino-oxazoles, processes for their preparation and their use as pharmaceutical compositions” (Sanofi-Aventis, priority 2005, dated 2010)
Where a name gives a salt, the structure may show the parent alone. Read-outs that look alike come from different tables or passages of the source.

Key:
human PPARalpha = biological target: T1, human PPARalpha (Homo sapiens, UniProt Q07869); test: Cellular PPARalpha assay (luciferase reporter, stably transfected HEK cell line); assay type: cell-based; conditions: GR-GAL4-humanPPARalpha-LBD
T1 construct: amino acids S167-Y468; expressed in transfected cells; host or cells: HEK (human embryo kidney) cells, stably transfected; plasmid pcDNA3
T1 sequence (Q07869 167-468): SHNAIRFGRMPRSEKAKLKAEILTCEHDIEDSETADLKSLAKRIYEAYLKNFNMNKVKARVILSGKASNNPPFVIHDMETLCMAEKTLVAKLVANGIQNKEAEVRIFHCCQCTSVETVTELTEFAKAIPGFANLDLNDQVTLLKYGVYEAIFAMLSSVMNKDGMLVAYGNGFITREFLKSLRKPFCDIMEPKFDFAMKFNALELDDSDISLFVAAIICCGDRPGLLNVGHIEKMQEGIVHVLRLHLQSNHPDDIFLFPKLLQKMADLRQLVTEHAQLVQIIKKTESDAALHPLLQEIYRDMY
Method: Determination of EC50 Values of PPAR Agonists in the Cellular PPARalpha Assay
(§1) The potency of substances which bind to human PPARalpha and activate it in an agonistic manner is analyzed using a stably transfected HEK cell line (HEK=human embryo kidney) which is referred to here as PPARalpha reporter cell line. It contains two genetic elements, a luciferase reporter element (pdeltaM-GAL4-Luc-Zeo) and a PPARalpha fusion protein (GR-GAL4-humanPPARalpha-LBD) which mediates expression of the luciferase reporter element depending on a PPARalpha ligand. The stably and constitutively expressed fusion protein GR-GAL4-humanPPARalpha-LBD binds in the cell nucleus of the PPARalpha reporter cell line via the GAL4 protein portion to the GAL4 DNA binding motifs 5′-upstream of the luciferase reporter element which is stably integrated in the genome of the cell line. There is only weak expression of the luciferase reporter gene in the absence of a PPARalpha ligand if fatty acid-depleted fetal calf serum (cs-FCS) is used in the assay. PPARalpha ligands bind and activate the PPARalpha fusion protein and thereby stimulate the expression of the luciferase reporter gene. The luciferase which is formed can be detected by means of chemiluminescence via an appropriate substrate.
The PPARalpha reporter cell line was prepared in two stages. Firstly, the luciferase reporter element was constructed and stably transfected into HEK cells. For this purpose, five binding sites of the yeast transcription factor GAL4 (Accession # AF264724) were cloned in 5′-upstream of a 68 bp-long minimal MMTV promoter (Accession # V01175). The minimal MMTV promoter section contains a […] and a TATA element in order to enable efficient transcription by RNA polymerase II. The cloning and sequencing of the GAL4-MMTV construct took place in analogy to the description of Sambrook J. et. al. (Molecular cloning, Cold Spring Harbor Laboratory Press, 1989). Then the complete Photinus pyralis gene (Accession # M15077) was cloned in 3′-downstream of the GAL4-MMTV element. After sequencing, the luciferase reporter element consisting of five GAL4 binding sites, MMTV promoter and luciferase gene was recloned into a plasmid which confers zeocin resistance in order to obtain the plasmid pdeltaM-GAL4-Luc-Zeo. This vector was transfected into HEK cells in accordance with the statements in Ausubel, F. M. et al. (Current protocols in molecular biology, Vol. 1-3, John Wiley & Sons, Inc., 1995).
In a second step, the PPARalpha fusion protein (GR-GAL4-humanPPARalpha-LBD was introduced into the stable cell clone described. For this purpose, initially the cDNA coding for the N-terminal 76 amino acids of the glucocorticoid receptor (Accession # P04150) was linked to the cDNA section coding for amino acids 1-147 of the yeast transcription factor GAL4 (Accession # P04386). The cDNA of the ligand-binding domain of the human PPARalpha receptor (amino acids S167-Y468; Accession # S74349) was cloned in at the 3′-end of this GR-GAL4 construct. The fusion construct prepared in this way (GR-GAL4-humanPPARalpha-LBD) was recloned into the plasmid pcDNA3 (Invitrogen) in order to enable constitutive expression therein by the cytomegalovirus promoter. This plasmid was linearized with a restriction endonuclease and stably transfected into the previously described cell clone containing the luciferase reporter element. The finished PPARalpha reporter cell line which contains a luciferase reporter element and constitutively expresses the PPARalpha fusion protein (GR-GAL4-human PPARalpha-LBD) was isolated by selection with zeocin (0.5 mg/ml) and G418 (0.5 mg/ml).
The activity of PPARalpha agonists is determined in a 3-day assay which is described below: […]

human PPARdelta = biological target: T2, human PPARdelta (Homo sapiens, UniProt Q03181); test: Cellular PPARdelta assay (luciferase reporter, stably transfected HEK cell line); assay type: cell-based; conditions: GR-GAL4-humanPPARdelta-LBD
T2 construct: amino acids S139-Y441; expressed in transfected cells; host or cells: HEK (human embryo kidney) cells, stably transfected; plasmid pcDNA3
T2 sequence (Q03181 139-441): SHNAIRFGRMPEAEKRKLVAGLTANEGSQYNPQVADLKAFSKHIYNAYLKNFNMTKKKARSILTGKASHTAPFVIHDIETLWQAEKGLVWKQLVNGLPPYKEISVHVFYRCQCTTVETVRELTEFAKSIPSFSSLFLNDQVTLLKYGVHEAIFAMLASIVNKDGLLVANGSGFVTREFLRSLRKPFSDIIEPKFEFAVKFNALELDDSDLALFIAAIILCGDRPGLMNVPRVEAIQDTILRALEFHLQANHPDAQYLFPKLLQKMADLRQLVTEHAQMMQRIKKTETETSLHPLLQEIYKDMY
Method: Determination of EC50 Values of PPAR Agonists in the Cellular PPARdelta Assay
as §1, with “PPARdelta” for “PPARalpha”, “In analogy to the assay described for PPARalpha, the PPARdelta reporter cell line also” for “It”, “(GR-GAL4-humanPPARdelta-LBD)” for “(GR-GAL4-humanPPARalpha-LBD)”, “GR-GAL4-humanPPARdelta-LBD” for “GR-GAL4-humanPPARalpha-LBD”, “little” for “weak”, “stimulate” for “stimulate the”
The production of the stable PPARdelta reporter cell line is based on a stable HEK-cell clone which was stably transfected with a luciferase reporter element. This step was already described above in the section “construction of the PPARalpha reporter cell line”. In a second step, the PPARdelta fusion protein (GR-GAL4-humanPPARdelta-LBD was stably introduced into this cell clone. For this purpose, the cDNA coding for the N-terminal 76 amino acids of the glucocorticoid receptor (Accession # P04150) was linked to the cDNA section coding for amino acids 1-147 of the yeast transcription factor GAL4 (Accession # P04386). The cDNA of the ligand-binding domain of the human PPARdelta receptor (amino acids S139-Y441; Accession # L07592) was cloned in at the 3′-end of this GR-GAL4 construct. The fusion construct prepared in this way (GR-GAL4-humanPPARdelta-LBD) was recloned into the plasmid pcDNA3 (Invitrogen) in order to enable constitutive expression by the cytomegalovirus promoter. This plasmid was linearized with a restriction endonuclease and stably transfected into the previously described cell clone containing the luciferase reporter element. The resulting PPARdelta reporter cell line which contains a luciferase reporter element and constitutively expresses the PPARdelta fusion protein (GR-GAL4-human PPARdelta-LBD) was isolated by selection with zeocin (0.5 mg/ml) and G418 (0.5 mg/ml).
The activity of PPARdelta agonists is determined in a 3-day assay in exact analogy to the procedure already described for the PPARalpha reporter cell line except that the PPARdelta reporter cell line and a specific PPARdelta agonist was used as a standard to control test efficacy.

[1] = rhesus monkeys; cited from earlier work
[2] = cynomoigus monkeys; cited from earlier work
[3] = two weeks clinical trials in healthy volunteers; cited from earlier work
[4] = diabetic animal model; cited from earlier work
[5] = obese, insulin resistant rhesus monkeys; cited from earlier work

## CN(C)CCN(Cc1ccc(-c2noc(=O)[nH]2)c(C(F)(F)F)c1)c1nc2ccc(C(F)(F)F)cc2s1 [Example 33, 3-(4-{[(2-Dimethylamino-ethyl)-(6-trifluoromethyl-benzothiazol-2-yl)-amino]-methyl}-2-trifluoromethyl-phenyl)-4H-[1,2,4]oxadiazol-5-one trifluoroacetate]
Human PPARalpha
  EC50: 1100 nM
Human PPARdelta
  EC50: 1800 nM

## CCCc1c(OCCCSc2nnc(SCC(=O)O)s2)ccc(C(C)=O)c1O [YM-16638]
[1]
  plasma lipids: significantly lowers
[2]
  plasma lipids: significantly lowers
[3]
  plasma lipids: acts in a similar manner

## Cc1cc(CCN(CC2CCOCC2)c2nc3ccc(C(F)(F)F)cc3s2)ccc1-c1noc(=O)[nH]1 [Example 9, 3-(2-Methyl-4-{2-[(tetrahydro-pyran-4-ylmethyl)-(6-trifluoromethyl-benzothiazol-2-yl)-amino]-ethyl}-phenyl)-4H-[1,2,4]oxadiazol-5-one]
Human PPARalpha
  EC50: 60 nM
Human PPARdelta
  EC50: 20 nM

## CCCc1c(OCCCOc2ccc(OCC(=O)O)cc2)ccc(C(C)=O)c1O [Example L-165041]
[4]
  plasma cholesterol: raises

## COCCN(CCc1ccc(-c2noc(=O)[nH]2)cc1)c1nc(-c2ccc(Cl)cc2)cs1 [Example 23, 3-(4-{2-[[4-(4-Chloro-phenyl)-thiazol-2-yl]-(2-methoxy-ethyl)-amino]-ethyl}-phenyl)-4H-[1,2,4]oxadiazol-5-one]
Human PPARalpha
  EC50: 820 nM
Human PPARdelta
  EC50: 650 nM

## Cc1cc(SCc2sc(-c3ccc(C(F)(F)F)cc3)nc2C)ccc1OCC(=O)O [GW501516]
[5]
  HDL-cholesterol: raises
  insulin levels: decreases
  plasma LDL-cholesterol: decreases
  plasma triglycerides: decreases

## COCCCN(Cc1ccc(-c2noc(=O)[nH]2)c(F)c1)c1nc(-c2ccc(Cl)cc2)cs1 [Example 39, 3-(4-{[[4-(4-Chloro-phenyl)-thiazol-2-yl]-(3-methoxy-propyl)-amino]-methyl}-2-fluoro-phenyl) -4H-[1,2,4]oxadiazol-5-one]
Human PPARalpha
  EC50: 360 nM
Human PPARdelta
  EC50: 200 nM

## CCCCN(Cc1ccc(-c2noc(=O)[nH]2)c(F)c1)c1nc2ccc(C(F)(F)F)cc2s1 [Example 24, 3-(4-{[Butyl-(6-trifluoromethyl-benzothiazol-2-yl)-amino]-methyl}-2-fluoro-phenyl)-4H-[1,2,4]oxadiazol-5-one]
Human PPARalpha
  EC50: 1350 nM
Human PPARdelta
  EC50: 270 nM

## COCCN(Cc1ccc(-c2noc(=O)[nH]2)c(F)c1)c1nc2ccc(C(F)(F)F)cc2s1 [Example 28, 3-(2-Fluoro-4-{[(2-methoxy-ethyl)-(6-trifluoromethyl-benzothiazol-2-yl)-amino]-methyl}-phenyl)-4H-[1,2,4]oxadiazol-5-one]
Human PPARalpha
  EC50: 1020 nM
Human PPARdelta
  EC50: 60 nM

## COCCCN(CCc1ccc(-c2noc(=O)[nH]2)c(C)c1)c1nc2ccc(C(F)(F)F)cc2s1 [Example 14, 3-(4-{2-[(3-Methoxy-propyl)-(6-trifluoromethyl-benzothiazol-2-yl)-amino]-ethyl}-2-methyl-phenyl)-4H-[1,2,4]oxadiazol-5-one]
Human PPARalpha
  EC50: 70 nM
Human PPARdelta
  EC50: 4 nM
